What all share (format): cell-based
In one data set the target is NaV1.2 (Homo sapiens (Human), UniProt Q99250). Description: Qpatch selectivity, NaV1.2 inward current. The following applies: tested at concentrations up to 30 μM, IC50 estimated. From the text:
(§1) To determine whether compounds were selective for TRPV3 inhibition over inhibition of other ion channel types, the human ERG (hERG), NaV1.2, and TRPV1 (hTRPV1) channels and the rat TRPV6 (rTRPV6) channel were also stably transfected and expressed or induced to express in mammalian cell lines. The methods for measuring currents from these channels are well-established and have been described in numerous publications (See, Weerapura et al., 2002, J Physiology 540: 15-27; Rush et al., 2005, J Physiology 564: 808-815; Caterina et al., 1997, Nature 389: 816-824; Hoenderhop et al., 2001, J Physiology 537: 747-761; Clapham et al., 2003, Pharmacol Rev 55: 591-596). Compounds of interest were tested against these channels at concentrations up to 30 μM, and the resulting data were used to estimate IC50.

The next data set has as its target TRPV3 (Homo sapiens (Human), UniProt Q8NET8). Description: Whole-cell patch clamp of TRPV3 mediated inward current. The following applies: HEK293/TREx TRPV3 cells, approximate values. From the text: Whole-cell patch clamp experiments permit the detection of currents through the TRPV3 channel in the cell line described above. A glass electrode is brought into contact with a single cell and the membrane is then ruptured, permitting control of the voltage of the cell membrane and measurement of currents flowing across the membrane using the amplifier attached to the electrode. A perfusion system permits control of the extracellular solution, including the addition of blockers and activators of the current. The current can be activated by heating this solution to 28° C. or warmer or by addition of 20 μM 2-APB to the solution.
TRPV3 cells were induced 20-48 hours, removed from growth plates, and replated at low density (to attain good single-cell physical separation) on glass coverslips for measurement. In some cases, cells were grown in low density overnight on glass coverslips. Patch clamp recordings were made in the whole-cell mode with a holding potential of −40 mV. Every 5 seconds, a voltage ramp was applied from −120 to +100 mV, 400 ms in duration. Currents elicited were quantified at −80 mV and +80 mV. The internal solution consisted of 140 mM cesium aspartate, 10 mM EGTA, 2.27 mM MgCl2, 1.91 mM CaCl2 and 10 mM HEPES, pH to 7.2 with KOH; with 50 nM calculated free Ca^2+. External solution was Ringer's solution described above. Upon addition of 2-APB or upon heating of the extraceullar solution as described above, TRPV3 current was induced only in TRPV3-expressing cells and not in parental HEK293 TREx cells. […] Removal of the stimulus caused most of the current to go away, and inhibitor addition could still inhibit this current.
The data includes approximate IC50 values for inhibition of TRPV3 mediated inward current as assessed by patch-clamp.
For orientation: The patch-clamp technique gives a direct electrical read-out from membranes.

The target of the next data set is hERG (Homo sapiens (Human), UniProt Q12809). Briefly: Patch clamp selectivity, hERG current. Particulars: tested at concentrations up to 30 μM, IC50 estimated.
hERG, sequence (Q12809 whole entry): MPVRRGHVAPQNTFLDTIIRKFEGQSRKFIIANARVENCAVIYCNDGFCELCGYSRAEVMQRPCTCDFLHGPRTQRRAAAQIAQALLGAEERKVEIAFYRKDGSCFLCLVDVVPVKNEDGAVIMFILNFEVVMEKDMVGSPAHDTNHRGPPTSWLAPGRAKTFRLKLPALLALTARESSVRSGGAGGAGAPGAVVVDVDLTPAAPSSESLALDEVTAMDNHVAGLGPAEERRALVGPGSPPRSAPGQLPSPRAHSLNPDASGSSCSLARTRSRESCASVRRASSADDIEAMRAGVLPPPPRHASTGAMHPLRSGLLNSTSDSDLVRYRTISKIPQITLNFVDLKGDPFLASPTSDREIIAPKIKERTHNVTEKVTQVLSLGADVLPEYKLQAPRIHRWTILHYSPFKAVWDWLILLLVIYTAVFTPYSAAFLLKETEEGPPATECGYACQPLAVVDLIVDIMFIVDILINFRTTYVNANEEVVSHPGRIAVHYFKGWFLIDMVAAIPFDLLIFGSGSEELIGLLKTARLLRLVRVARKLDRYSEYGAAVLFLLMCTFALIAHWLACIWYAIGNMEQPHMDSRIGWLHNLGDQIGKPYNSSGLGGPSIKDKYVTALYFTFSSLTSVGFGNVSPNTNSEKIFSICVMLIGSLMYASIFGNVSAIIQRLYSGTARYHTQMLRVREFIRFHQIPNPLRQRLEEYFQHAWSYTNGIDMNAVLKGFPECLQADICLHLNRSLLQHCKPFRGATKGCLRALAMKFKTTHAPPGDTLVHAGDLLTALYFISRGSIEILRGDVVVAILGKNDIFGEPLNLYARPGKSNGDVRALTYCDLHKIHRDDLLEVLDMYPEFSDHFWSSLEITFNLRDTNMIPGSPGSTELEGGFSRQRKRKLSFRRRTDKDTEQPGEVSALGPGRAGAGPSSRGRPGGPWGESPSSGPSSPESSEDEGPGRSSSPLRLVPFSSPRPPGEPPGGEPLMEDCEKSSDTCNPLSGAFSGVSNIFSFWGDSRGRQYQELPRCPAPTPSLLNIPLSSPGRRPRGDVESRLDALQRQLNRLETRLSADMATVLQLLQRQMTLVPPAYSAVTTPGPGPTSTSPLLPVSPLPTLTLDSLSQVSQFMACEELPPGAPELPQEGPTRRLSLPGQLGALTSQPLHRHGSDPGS
Excerpt: as §1

A further data set deals with TRPV1 (hTRPV1) (Homo sapiens (Human), UniProt Q8NER1). Description: Patch clamp selectivity, TRPV1 inward current. The following applies: tested at concentrations up to 30 μM, IC50 estimated.
TRPV1 (hTRPV1), sequence (Q8NER1 whole entry): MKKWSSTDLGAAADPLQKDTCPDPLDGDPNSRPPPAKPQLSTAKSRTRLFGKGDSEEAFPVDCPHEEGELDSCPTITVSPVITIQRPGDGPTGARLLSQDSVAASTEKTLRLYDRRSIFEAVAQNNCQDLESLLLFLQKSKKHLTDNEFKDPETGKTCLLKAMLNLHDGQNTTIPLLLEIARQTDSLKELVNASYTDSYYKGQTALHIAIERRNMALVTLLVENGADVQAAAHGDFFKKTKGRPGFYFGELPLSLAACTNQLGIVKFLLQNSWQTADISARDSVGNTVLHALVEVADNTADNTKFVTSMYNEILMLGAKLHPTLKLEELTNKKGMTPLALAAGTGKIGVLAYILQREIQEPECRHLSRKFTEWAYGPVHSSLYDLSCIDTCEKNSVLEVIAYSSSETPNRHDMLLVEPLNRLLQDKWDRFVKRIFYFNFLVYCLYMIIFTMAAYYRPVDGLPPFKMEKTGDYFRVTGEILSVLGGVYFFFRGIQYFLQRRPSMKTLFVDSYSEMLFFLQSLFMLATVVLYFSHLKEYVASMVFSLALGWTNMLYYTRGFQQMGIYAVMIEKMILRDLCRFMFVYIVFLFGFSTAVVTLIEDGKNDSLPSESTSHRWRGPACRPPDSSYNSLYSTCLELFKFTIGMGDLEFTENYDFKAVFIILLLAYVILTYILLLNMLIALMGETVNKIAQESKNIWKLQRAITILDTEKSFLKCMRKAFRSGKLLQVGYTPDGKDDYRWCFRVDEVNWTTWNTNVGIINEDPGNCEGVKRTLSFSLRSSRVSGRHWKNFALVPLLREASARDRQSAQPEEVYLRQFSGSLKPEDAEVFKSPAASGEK
Excerpt: as §1

Setting [1] is: Phase 1 inward current, read-out: TRPV3 Phase 1 IC50 inward.
The mark [2] stands for this setting: Phase 2 inward current, read-out: TRPV3 Phase 2 IC50 inward.

Like-named read-outs stand apart in the source and are kept apart here. Some results are limits rather than exact numbers.

NaV1.2, sequence (Q99250 whole entry): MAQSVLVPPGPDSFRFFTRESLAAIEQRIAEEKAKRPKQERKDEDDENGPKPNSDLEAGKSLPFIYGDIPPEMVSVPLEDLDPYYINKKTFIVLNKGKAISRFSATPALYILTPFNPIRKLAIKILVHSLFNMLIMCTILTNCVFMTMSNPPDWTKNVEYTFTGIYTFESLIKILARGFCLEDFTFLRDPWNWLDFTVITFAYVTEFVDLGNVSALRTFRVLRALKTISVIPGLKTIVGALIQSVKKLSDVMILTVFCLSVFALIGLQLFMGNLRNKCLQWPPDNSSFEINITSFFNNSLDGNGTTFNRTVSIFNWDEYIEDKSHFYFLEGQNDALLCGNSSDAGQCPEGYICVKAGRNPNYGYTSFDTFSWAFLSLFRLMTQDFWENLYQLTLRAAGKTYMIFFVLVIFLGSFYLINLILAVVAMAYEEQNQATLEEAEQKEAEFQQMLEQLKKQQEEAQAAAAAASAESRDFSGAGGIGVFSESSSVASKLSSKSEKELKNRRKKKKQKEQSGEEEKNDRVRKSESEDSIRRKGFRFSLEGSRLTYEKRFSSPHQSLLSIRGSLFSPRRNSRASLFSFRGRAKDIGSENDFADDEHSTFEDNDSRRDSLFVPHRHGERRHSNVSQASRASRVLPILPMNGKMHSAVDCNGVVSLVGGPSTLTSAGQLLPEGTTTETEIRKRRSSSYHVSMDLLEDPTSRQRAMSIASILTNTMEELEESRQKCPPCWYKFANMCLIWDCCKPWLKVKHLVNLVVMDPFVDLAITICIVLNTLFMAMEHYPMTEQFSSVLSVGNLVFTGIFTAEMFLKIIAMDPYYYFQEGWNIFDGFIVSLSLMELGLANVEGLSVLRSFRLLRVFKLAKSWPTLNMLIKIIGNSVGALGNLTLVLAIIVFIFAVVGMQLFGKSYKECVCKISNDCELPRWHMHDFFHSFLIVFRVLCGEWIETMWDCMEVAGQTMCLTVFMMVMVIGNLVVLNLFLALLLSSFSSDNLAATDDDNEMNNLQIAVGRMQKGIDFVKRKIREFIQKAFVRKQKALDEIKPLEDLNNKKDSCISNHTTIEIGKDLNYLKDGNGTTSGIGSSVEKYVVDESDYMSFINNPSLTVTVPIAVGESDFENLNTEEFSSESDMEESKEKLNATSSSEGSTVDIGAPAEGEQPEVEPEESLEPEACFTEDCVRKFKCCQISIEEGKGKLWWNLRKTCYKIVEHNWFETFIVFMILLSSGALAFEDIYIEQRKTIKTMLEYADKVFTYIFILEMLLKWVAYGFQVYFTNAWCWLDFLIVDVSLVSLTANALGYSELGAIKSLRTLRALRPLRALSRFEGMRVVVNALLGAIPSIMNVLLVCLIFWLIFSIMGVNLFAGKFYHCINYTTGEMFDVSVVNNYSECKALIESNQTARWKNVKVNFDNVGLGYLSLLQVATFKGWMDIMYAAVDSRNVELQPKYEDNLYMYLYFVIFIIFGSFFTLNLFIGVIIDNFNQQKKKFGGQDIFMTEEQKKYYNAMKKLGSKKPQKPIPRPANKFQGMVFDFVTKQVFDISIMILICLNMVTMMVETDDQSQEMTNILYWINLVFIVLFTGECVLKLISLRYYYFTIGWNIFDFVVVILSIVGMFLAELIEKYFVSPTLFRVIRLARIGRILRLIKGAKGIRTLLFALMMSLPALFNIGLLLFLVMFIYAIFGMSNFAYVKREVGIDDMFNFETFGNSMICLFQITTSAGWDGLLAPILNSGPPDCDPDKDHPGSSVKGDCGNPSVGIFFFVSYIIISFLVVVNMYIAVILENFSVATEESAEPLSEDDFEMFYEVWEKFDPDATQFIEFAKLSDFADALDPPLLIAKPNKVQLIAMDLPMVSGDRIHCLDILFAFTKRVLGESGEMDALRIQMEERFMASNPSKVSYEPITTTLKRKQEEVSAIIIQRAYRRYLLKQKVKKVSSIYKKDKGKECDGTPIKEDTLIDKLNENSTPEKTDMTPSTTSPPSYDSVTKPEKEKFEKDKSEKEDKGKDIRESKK
TRPV3, sequence (Q8NET8 whole entry, species assumed, the tested form may be a part): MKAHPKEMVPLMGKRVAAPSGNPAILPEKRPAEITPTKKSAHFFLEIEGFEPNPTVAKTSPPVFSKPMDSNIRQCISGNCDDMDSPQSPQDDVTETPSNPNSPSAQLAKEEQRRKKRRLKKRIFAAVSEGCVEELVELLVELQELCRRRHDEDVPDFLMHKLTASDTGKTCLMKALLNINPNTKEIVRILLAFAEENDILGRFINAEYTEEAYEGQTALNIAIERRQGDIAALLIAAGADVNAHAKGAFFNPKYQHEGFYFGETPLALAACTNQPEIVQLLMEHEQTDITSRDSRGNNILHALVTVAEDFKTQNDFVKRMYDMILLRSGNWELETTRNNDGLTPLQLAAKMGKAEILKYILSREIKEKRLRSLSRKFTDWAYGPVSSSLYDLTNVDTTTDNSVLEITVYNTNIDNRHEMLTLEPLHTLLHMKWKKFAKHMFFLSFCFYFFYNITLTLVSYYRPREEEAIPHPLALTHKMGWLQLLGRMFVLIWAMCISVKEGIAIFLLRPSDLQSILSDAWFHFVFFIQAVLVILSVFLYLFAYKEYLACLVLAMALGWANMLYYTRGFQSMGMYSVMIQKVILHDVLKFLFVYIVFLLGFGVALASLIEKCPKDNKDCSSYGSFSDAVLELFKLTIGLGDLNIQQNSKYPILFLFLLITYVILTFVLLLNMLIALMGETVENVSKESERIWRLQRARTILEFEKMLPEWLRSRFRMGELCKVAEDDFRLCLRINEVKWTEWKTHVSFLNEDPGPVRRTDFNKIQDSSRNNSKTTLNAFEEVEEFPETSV

For orientation: IC50 means the midpoint of a concentration-inhibition curve. As for `O=C(CSc1ccc(C(F)(F)F)cn1)N1CCCc2ccccc21`, the IC50 at NaV1.2 was no less than 30 µM; at TRPV3 (setting [1]), no more than 5 µM; at TRPV3 (setting [2]), no more than 1 µM.

For the molecule `Cc1cccc2c1N(C(=O)CSc1ccc(C#N)cn1)CCC2`, the figures for the IC50 on TRPV3 (setting [1]) and at TRPV3 (setting [2]) were no more than 10 µM and no more than 5 µM, respectively.

With `Cc1cccc2c1N(C(=O)CSc1ncc(C(F)(F)F)cc1F)CCC2`, the half-inhibitory concentration (IC50) at TRPV3 (setting [1]) and on TRPV3 (setting [2]) was no more than 0.2 µM throughout.

For the molecule `Cc1cccc2c1N(C(=O)CSc1ccc(Br)cn1)CCC2`, the half-maximal inhibitory concentration (IC50) at TRPV3 (setting [1]) and on TRPV3 (setting [2]) was no more than 0.5 µM throughout.

On to `COC(=O)c1cnc(SCC(=O)N2CCCc3cccc(C)c32)c(Cl)c1`, for which the IC50 on TRPV3 (setting [1]) and at TRPV3 (setting [2]) was no more than 5 µM each time.

For `Cc1cccc2c1N(C(=O)CSc1ncc(Cl)cc1Cl)CCC2`, the 50% inhibitory concentration (IC50) on TRPV3 (setting [1]) and at TRPV3 (setting [2]) was no more than 0.2 µM in each case.

`Cc1cccc2c1N(C(=O)CSc1cc(C#N)ccn1)CCC2`: the half-maximal inhibitory concentration (IC50) at TRPV3 (setting [1]) and at TRPV3 (setting [2]) was no more than 10 µM each time.

On to `Cc1cccc2c1N(C(=O)CSc1ncccc1C#N)CCC2`, for which the figures for the IC50 at TRPV3 (setting [1]) and on TRPV3 (setting [2]) were no more than 1 µM and no more than 0.5 µM, respectively.

Consider `COc1cccc2c1N(C(=O)CSc1ncccc1Cl)CCC2`, for which the IC50 on TRPV3 (setting [1]) and on TRPV3 (setting [2]) was no more than 0.5 µM in each case.

In the case of `Cc1ccnc(SCC(=O)N2CCCc3cccc(C)c32)c1C`, the IC50 on TRPV3 (setting [1]) was no more than 5 µM; at TRPV3 (setting [2]), no more than 1 µM.

As to `Cc1cnc(SCC(=O)N2CCCc3cccc(C)c32)cc1C`, the IC50 at TRPV3 (setting [1]) and at TRPV3 (setting [2]) was no more than 0.2 µM each time.

Consider `CCc1cc(C(F)(F)F)cnc1SCC(=O)N1CCCc2cccc(C)c21`, for which the 50% inhibitory concentration (IC50) on TRPV3 (setting [1]) and at TRPV3 (setting [2]) was no more than 5 µM throughout.

In the case of `Cc1cccc2c1N(C(=O)CSc1ccc(C(F)(F)F)cn1)CCC2` [Compound 6, 2-(5-trifluoromethyl-pyridine-2-ylsulfanyl)-1-(8-methyl-3,4-dihydro-2H-quinolin-1-yl)-ethanone], the half-maximal inhibitory concentration (IC50) was no less than 30 µM on NaV1.2; no more than 0.5 µM at TRPV3 (setting [1]); no more than 0.2 µM at TRPV3 (setting [2]); no less than 30 µM at hERG; no less than 20 µM at TRPV1 (hTRPV1).

On to `Cc1cccc2c1N(C(=O)CSc1ncccc1C(F)(F)F)CCC2` [Compound 8, 1-(8-methyl-3,4-dihydro-2H-quinolin-1-yl)-2-(3-trifluoromethyl-pyridin-2-ylsulfanyl)-ethanone], for which the 50% inhibitory concentration (IC50) at TRPV3 (setting [1]) was no more than 1 µM; at TRPV3 (setting [2]), no more than 5 µM.

Consider `Cc1cccc2c1N(C(=O)CSc1ncc(C(F)(F)F)cc1Cl)CCC2` [Compound 10, 2-(3-chloro-5-trifluoromethyl-pyridine-2-ylsulfanyl)-1-(8-methyl-3,4-dihydro-2H-quinolin-1-yl)-ethanone], for which the concentration for half-maximal inhibition (IC50) on TRPV3 (setting [1]) was no more than 0.2 µM; on TRPV3 (setting [2]), no more than 0.5 µM.

Turning to `Cc1cccc2c1N(C(=O)CSc1ccccn1)CCC2` [Compound 12, 1-(8-methyl-3,4-dihydro-2H-quinolin-1-yl)-2-(pyridine-2-ylsulfanyl)-ethanone], the results for the half-maximal inhibitory concentration (IC50) on TRPV3 (setting [1]) and on TRPV3 (setting [2]) were no more than 5 µM and no more than 10 µM, respectively.

For the molecule `Cc1cccc2c1N(C(=O)CSc1ccc(Cl)cn1)CCC2` [Compound 16, 2-(5-Chloro-pyridin-2-ylsulfanyl)-1-(8-methyl-3,4-dihydro-2H-quinolin-1-yl)-ethanone], the figures for the 50% inhibitory concentration (IC50) on TRPV3 (setting [1]), at TRPV3 (setting [2]) and on hERG were no more than 0.5 µM, no more than 0.5 µM and no less than 5 µM, respectively.

Take `Cc1cccc2c1N(C(=O)CSc1ncccc1Cl)CCC2` [Compound 20, 2-(3-chloro-pyridin-2-ylsulfanyl)-1-(8-methyl-3,4-dihydro-2H-quinolin-1-yl)-ethanone]: the 50% inhibitory concentration (IC50) on NaV1.2 is no less than 30 µM; at TRPV3 (setting [1]) it was no more than 0.2 µM; at TRPV3 (setting [2]) it was no more than 1 µM; at hERG, no less than 10 µM.

Consider `O=C(CSc1ccc(Cl)cn1)N1CCCc2ccccc21` [Compound 21, 2-(5-chloro-pyridine-2-ylthio)-1-(3,4-dihydroquinolin-1-(2H)-yl)-ethanone], for which the IC50 on TRPV3 (setting [1]) and at TRPV3 (setting [2]) was no more than 5 µM in each case.

`Cc1ccc(SCC(=O)N2CCCc3cccc(C)c32)nc1` [Compound 24, 1-(8-Methyl-3,4-dihydro-2H-quinolin-1-yl)-2-(5-methyl-pyridin-2-ylsulfanyl)-ethanone]: the half-inhibitory concentration (IC50) at TRPV3 (setting [1]) was no more than 5 µM; at TRPV3 (setting [2]), no more than 10 µM.

Values taken from patent US9181219B2, “Compounds of modulating TRPV3 function” (Hydra Biosciences, Inc., priority 2006, dated 2015).
